PubChem BioAssay (NCI)
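1) Cells in 96-well plates. 2) Compound, 48 h, 5 concentrations. 3) Linear interpolation between surrounding doses. 4) Unreached endpoint = highest concentration. Abbreviation: GI50, concentration required for 50% inhibition of growth. Definition used: TGI = concentration required for complete inhibition of growth.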

What was measured:
Test in all cases: inhibition of tumour cell growth, NCI panel, 48 h
[1] = tested on: K-562 leukemia
[2] = tested on: SNB-75 CNS
[3] = tested on: OVCAR-4 ovarian
[4] = tested on: SF-539 CNS
[5] = tested on: M14 melanoma
[6] = tested on: HCT-116 colon
[7] = tested on: SF-295 CNS
[8] = tested on: UO-31 renal
[9] = tested on: MALME-3M melanoma
[10] = tested on: NCI-H226 lung

C[C@@H]1Cc2c([nH]c3ccccc23)[C@@H](c2c(F)cc(NC3CN(CCCF)C3)cc2F)N1CC(F)(F)CO showed a GI50 [1] of 3.24 µM, a TGI [1] of 11.8 µM and a GI50 [2] of 4.92 µM. For the same compound, the TGI [2] was 20.5 µM, the GI50 [3] was 9.86 µM and the TGI [3] was 21.9 µM. The GI50 [4] was 4.36 µM, the TGI [4] was 15.7 µM and the GI50 [5] was 1.87 µM. It also gave a TGI [5] of 3.84 µM, a GI50 [6] of 1.94 µM and a TGI [6] of 3.83 µM. For the same compound, the GI50 [7] was 2.25 µM, the TGI [7] was 5.21 µM and the GI50 [8] was 3.7 µM. The TGI [8] was 16.5 µM, the GI50 [9] was 1.77 µM and the TGI [9] was 3.72 µM. It also gave a GI50 [10] of 7.71 µM and a TGI [10] of 25.8 µM.

O=[N+]([O-])/C=C/c1cc2ccccc2[nH]1 showed a TGI [1] of 52.8 µM, a TGI [2] of 28.6 µM and a TGI [3] of 27.4 µM. It also gave a TGI [4] of 25.5 µM, a TGI [5] of 28.5 µM and a TGI [6] of 15.7 µM. For the same compound, the TGI [7] was 43.9 µM, the TGI [8] was 31.9 µM and the TGI [9] was 59.8 µM. It also gave a TGI [10] of 37.7 µM.

Compound CN(C)C/C=C/C(=O)Nc1cc2c(Nc3ccc(F)c(Cl)c3F)ncnc2cc1OCCOC(F)F has a GI50 [1] of 0.519 µM, a TGI [1] of 11.3 µM and a GI50 [2] of 0.162 µM. The TGI [2] was 2.47 µM, the GI50 [3] was 1.18 µM and the TGI [3] was 10.7 µM. For the same compound, the GI50 [4] was 0.999 µM, the TGI [4] was 3.02 µM and the GI50 [5] was 1.87 µM. It also gave a TGI [5] of 6.2 µM, a GI50 [6] of 0.625 µM and a TGI [6] of 2.98 µM. The GI50 [7] was 1.72 µM, the TGI [7] was 9.86 µM and the GI50 [8] was less than 0.01 µM. The TGI [8] was 1.78 µM, the GI50 [9] was 1.27 µM and the TGI [9] was 2.94 µM. For the same compound, the GI50 [10] was 1.31 µM and the TGI [10] was 4.67 µM.

COc1cc2c(cc1OC)C(OC)N(C)c1c-2ccc2cc3c(cc12)OCO3 (centres undefined) gave a TGI [1] of 33.2 µM, a TGI [2] of 5.53 µM and a TGI [3] of 26 µM. It also gave a TGI [4] of 4.69 µM, a TGI [5] of 25.6 µM and a TGI [6] of 7.63 µM. It also gave a TGI [7] greater than 75 µM, a TGI [8] of 74.7 µM and a TGI [9] of 20 µM. The TGI [10] was 4.3 µM.

In the case of O=C(O)c1cc2ccccc2c(N=Nc2cc(C(F)(F)F)ccc2Cl)c1O, the TGI [1] is reported as greater than 100 µM, the TGI [2] is reported as 0.0907 µM and the TGI [3] is reported as greater than 100 µM. For the same compound, the TGI [4] was greater than 100 µM, the TGI [5] was greater than 100 µM and the TGI [6] was greater than 100 µM. For the same compound, the TGI [7] was greater than 100 µM, the TGI [8] was greater than 100 µM and the TGI [9] was greater than 100 µM. The TGI [10] was greater than 100 µM.

Cc1nc(CN2CCCCC2)c(O)c(=O)[nH]1 was tested, and the TGI [1] was greater than 100 µM, the TGI [2] was greater than 100 µM and the TGI [3] was greater than 100 µM. For the same compound, the TGI [4] was greater than 100 µM, the TGI [5] was greater than 100 µM and the TGI [6] was greater than 100 µM. The TGI [7] was greater than 100 µM, the TGI [8] was greater than 100 µM and the TGI [9] was greater than 100 µM. The TGI [10] was greater than 100 µM.

CC(C)C1CC2C(=O)N(c3ccccc3)C(=O)C2c2[nH]c3ccccc3c21 (centres undefined) showed a TGI [1] of 18.7 µM, a TGI [2] of 23.5 µM and a TGI [3] of 5.63 µM. For the same compound, the TGI [4] was 67.5 µM, the TGI [5] was greater than 100 µM and the TGI [6] was 14.8 µM. For the same compound, the TGI [7] was 65.5 µM, the TGI [8] was 80.4 µM and the TGI [9] was greater than 100 µM. The TGI [10] was 36.8 µM.

In the case of CC(=O)c1ccc2c(ccc(=O)n2C)c1, the TGI [1] is reported as greater than 100 µM, the TGI [2] is reported as greater than 100 µM and the TGI [3] is reported as greater than 100 µM. For the same compound, the TGI [4] was greater than 100 µM, the TGI [5] was greater than 100 µM and the TGI [6] was greater than 100 µM. The TGI [7] was greater than 100 µM, the TGI [9] was greater than 100 µM and the TGI [10] was greater than 100 µM.

Clc1ccc(C2=Nn3c(nnc3-c3cc(Cl)cc(Cl)c3Cl)SC2)cc1 was tested, and the GI50 [1] was 3.4 µM, the TGI [1] was 35.1 µM and the GI50 [2] was 14.8 µM. For the same compound, the TGI [2] was 34.2 µM, the GI50 [3] was greater than 100 µM and the TGI [3] was greater than 100 µM. It also gave a GI50 [4] of 20.1 µM, a TGI [4] of 48.3 µM and a GI50 [5] of 29 µM. The TGI [5] was greater than 100 µM, the GI50 [6] was 22.1 µM and the TGI [6] was greater than 100 µM. For the same compound, the GI50 [7] was 11 µM, the TGI [7] was 29.3 µM and the GI50 [9] was 10.5 µM. It also gave a TGI [9] of 29.2 µM, a GI50 [10] of 51.9 µM and a TGI [10] greater than 100 µM.

COc1cc2c3c(n(CCCNCCCNCCCNCCCN)c(=O)c2cc1OC)-c1cc2c(cc1C3=O)OCO2 gave a GI50 [1] of 2.05 µM, a TGI [1] of 5.22 µM and a GI50 [2] of 2.98 µM. The TGI [2] was 13.6 µM, the GI50 [3] was 4.34 µM and the TGI [3] was 58 µM. The GI50 [5] was 2.84 µM, the TGI [5] was 14.2 µM and the GI50 [6] was 1.5 µM. It also gave a TGI [6] of 3.13 µM, a GI50 [7] of 1.38 µM and a TGI [7] of 3.97 µM. It also gave a GI50 [8] of 7.39 µM, a TGI [8] greater than 100 µM and a GI50 [9] of 0.318 µM. It also gave a TGI [9] of 1.29 µM, a GI50 [10] of 2.92 µM and a TGI [10] of 7.26 µM.

CC(=O)OC1CC2Oc3ccc(C)cc3C(C)(O2)C1=O (centres undefined) was tested, and the TGI [1] was greater than 100 µM, the TGI [2] was greater than 100 µM and the TGI [4] was greater than 100 µM. It also gave a TGI [5] greater than 100 µM, a TGI [6] greater than 100 µM and a TGI [7] greater than 100 µM. It also gave a TGI [8] greater than 100 µM, a TGI [9] greater than 100 µM and a TGI [10] greater than 100 µM.

In the case of CN(/N=C/c1cccc2cccnc12)c1ccc([N+](=O)[O-])cc1, the TGI [1] is reported as greater than 100 µM, the TGI [2] is reported as greater than 100 µM and the TGI [4] is reported as greater than 100 µM. For the same compound, the TGI [5] was greater than 100 µM, the TGI [6] was greater than 100 µM and the TGI [7] was greater than 100 µM. The TGI [9] was greater than 100 µM and the TGI [10] was greater than 100 µM.

Cc1ccc(C(=O)Nc2ccc(S(=O)(=O)O)c3cc(S(=O)(=O)O)cc(S(=O)(=O)O)c23)cc1NC(=S)Nc1cc(C(=O)Nc2ccc(S(=O)(=O)O)c3cc(S(=O)(=O)O)cc(S(=O)(=O)O)c23)ccc1C was tested, and the TGI [1] was greater than 75 µM, the TGI [2] was greater than 75 µM and the TGI [3] was greater than 75 µM. It also gave a TGI [5] greater than 75 µM, a TGI [6] greater than 75 µM and a TGI [8] greater than 75 µM. The TGI [9] was greater than 75 µM and the TGI [10] was greater than 75 µM.

CCN(CC)CCCC(C)Nc1ccnc2ccc3nn(C)nc3c12 (centres undefined) was tested, and the TGI [1] was 86.3 µM, the TGI [2] was greater than 100 µM and the TGI [4] was greater than 100 µM. For the same compound, the TGI [5] was 90.1 µM, the TGI [6] was greater than 100 µM and the TGI [7] was greater than 100 µM. For the same compound, the TGI [8] was greater than 100 µM, the TGI [9] was greater than 100 µM and the TGI [10] was greater than 100 µM.
